Measurements from patent US20170304388A1, “NEW INDICATION OF CARDIOVASCULAR DRUGS FOR PREPARATION OF CANCER INHIBITION PHARMACEUTICAL COMPOSITION” (LAUNX BIOMEDICAL CO., LTD., priority 2014, published 2017).
Structures can show the parent of a compound that is named as a salt.

Test system: cancer cell lines
Test: Growth inhibitory effects on the panel of cancer cell lines
Format: cell-based
Settings: drug 10 μM, 72 hours, WST-1
Excerpt: Subculture the different types of cancer cells.
For cell viability analysis, the cardiovascular drugs include peripheral vasodilator reaming enhancer, angiotensin converting agent inhibitor, hypotension and shock therapeutic agent, diuretic, antiarrhythmic agent, antiarralciton drug, antihypertensive agent, anticoagulant thrombolytic agent, cardiac tonic, intravenous (hemorrhoids) therapeutic agent, are used to test the inhibition effect of cancer cell.

Compound | inhibition effect on different cancer cell lines (in words)
O=C(O[C@H]1CN2CCC1CC2)N1CCc2ccccc2[C@@H]1c1ccccc1 [Solifenacin succinate] | significant inhibition effect
O=C1c2ccccc2C(=O)C1c1ccccc1 [Phenindione (Rectadione), Phenindione] | significant inhibition effect
COC(=O)CCc1ccc(OCC(O)CNC(C)C)cc1 (centres unmarked) [Esmolol HCl] | significant inhibition effect
CC(C)NC[C@@H](O)COc1ccc(CC(N)=O)cc1 [(R)-(+)-Atenolol] | significant inhibition effect
NC12CC3CC(CC(C3)C1)C2 [Amantadine hydrochloride (Symmetrel), Amantadine hydrochloride] | significant inhibition effect
NS(=O)(=O)c1cc2c(cc1C(F)(F)F)NC(Cc1ccccc1)NS2(=O)=O (centres unmarked) [Bendroflumethiazide] | significant inhibition effect
COc1cc2nc(N(C)CCCNC(=O)C3CCCO3)nc(N)c2cc1OC (centres unmarked) [Alfuzosin hydrochloride (Uroxatral), Alfuzosin hydrochloride] | significant inhibition effect
Cc1ccc(N(CC2=NCCN2)c2cccc(O)c2)cc1 [Phentolamine mesilate] | significant inhibition effect
COc1ccc(C2C(=O)c3ccccc3C2=O)cc1 [Anisindione] | significant inhibition effect
CC[C@H](C)C(=O)O[C@H]1CCC=C2C=C[C@H](C)[C@H](CC[C@@H]3C[C@@H](O)CC(=O)O3)[C@H]21 [Mevastatin] | significant inhibition effect
CCOc1nc2cccc(C(=O)OC(C)OC(=O)OC3CCCCC3)c2n1Cc1ccc(-c2ccccc2-c2nnn[nH]2)cc1 (centres unmarked) [Candesartan cilexetil (Atacand), Candesartan cilexetil] | significant inhibition effect
Cc1ccc(C)c(OCCCC(C)(C)C(=O)O)c1 [Gemfibrozil (Lopid), Gemfibrozil] | significant inhibition effect
NS(=O)(=O)c1cc2c(cc1Cl)NCNS2(=O)=O [Hydrochlorothiazide] | significant inhibition effect
Cc1cn([C@H]2C[C@H](N=[N+]=[N-])[C@@H](CO)O2)c(=O)[nH]c1=O [Zidovudine (Retrovir), Zidovudine] | significant inhibition effect
O=C1c2c(O)ccc(O)c2C(=O)c2c(NCCNCCO)ccc(NCCNCCO)c21 [Mitoxantrone Hydrochloride] | significant inhibition effect
CC(C)NCC(O)COc1cccc2[nH]ccc12 (centres unmarked) [Pindolol] | significant inhibition effect
COc1ccc(OC)c(C(O)C(C)N)c1 (centres unmarked) [Methoxamine HCl] | significant inhibition effect
CS(=O)(=O)Nc1ccc([N+](=O)[O-])cc1Oc1ccccc1 [Nimesulide] | significant inhibition effect
CC(C)NCC(O)c1ccccc1Cl (centres unmarked) [Clorprenaline HCL] | significant inhibition effect

Compound | inhibition effect on different cancer cell lines (in words)
Nc1ccn([C@@H]2O[C@H](CO)[C@@H](O)[C@H]2O)c(=O)n1 [Cytidine] | significant inhibition effect
O=C1[C@H](CC[C@H](O)c2ccc(F)cc2)[C@@H](c2ccc(O)cc2)N1c1ccc(F)cc1 [Ezetimibe (Zetia), Ezetimibe] | significant inhibition effect
CNC[C@H](O)[C@@H](O)[C@H](O)[C@H](O)CO.CNC[C@H](O)[C@@H](O)[C@H](O)[C@H](O)CO.C[C@@H](O[C@H]1OCCN(Cc2nn(P(=O)(O)O)c(=O)[nH]2)[C@H]1c1ccc(F)cc1)c1cc(C(F)(F)F)cc(C(F)(F)F)c1 [Fosaprepitant dimeglumine] | significant inhibition effect
Cc1nc2c([nH]1)-c1ccccc1N(C(=O)c1ccc(NC(=O)c3ccccc3-c3ccccc3)cc1)CC2 [Conivaptan HCl (Vaprisol), Conivaptan HCl] | significant inhibition effect
Nc1cccc2c1CN(C1CCC(=O)NC1=O)C2=O (centres unmarked) [Lenalidomide] | significant inhibition effect
NS(=O)(=O)c1cc2c(cc1Cl)N=CNS2(=O)=O [Chlorothiazide] | significant inhibition effect
CCOC(=O)C1=C[C@@H](OC(CC)CC)[C@H](NC(C)=O)[C@@H](N)C1 [Oseltamivir phosphate (Tamiflu), Oseltamivir phosphate] | significant inhibition effect
CCCCC1=NC2(CCCC2)C(=O)N1Cc1ccc(-c2ccccc2-c2nnn[nH]2)cc1 [Irbesartan (Avapro), Irbesartan] | significant inhibition effect
C[N+](C)(C)C[C@H](O)CC(=O)[O-] [L-carnitine (Levocarnitine), L-carnitine] | significant inhibition effect
O=c1c(-c2ccc(O)cc2)coc2cc(O)ccc12 [Daidzein] | significant inhibition effect
CN(C)C(=O)Oc1ccc[n+](C)c1 [Pyridostigmine Bromide (Mestinon), Pyridostigmine Bromide] | significant inhibition effect
CN[C@@H]1[C@H](O)[C@H](NC)[C@H]2O[C@@]3(O)C(=O)C[C@@H](C)O[C@H]3O[C@@H]2[C@H]1O [Spectinomycin hydrochloride] | significant inhibition effect
CN(CCOc1ccc(NS(C)(=O)=O)cc1)CCc1ccc(NS(C)(=O)=O)cc1 [Dofetilide (Tikosyn), Dofetilide] | significant inhibition effect
C=C1CC[C@H](O)C/C1=C/C=C1\CCC[C@]2(C)[C@@H]([C@H](C)CCCC(C)C)CC[C@@H]12 [Vitamin D3 (Cholecalciferol), Cholecalciferol] | significant inhibition effect
O=S(=O)(O)c1cc(O)ccc1O [Ethamsylate] | significant inhibition effect
CCCCCCCCOc1ccccc1C(=O)Nc1ccc(C(=O)OCC[N+](C)(CC)CC)cc1 [Otilonium Bromide] | significant inhibition effect
CC(C)NCC(O)COc1cccc2ccccc12 (centres unmarked) [Propranolol HCl] | significant inhibition effect
Cc1onc(-c2ccccc2Cl)c1C(=O)N[C@@H]1C(=O)N2[C@@H]1SC(C)(C)[C@@H]2C(=O)O [Cloxacillin sodium (Cloxacap), Cloxacillin sodium] | significant inhibition effect
CCOc1nc2cccc(C(=O)OCc3oc(=O)oc3C)c2n1Cc1ccc(-c2ccccc2-c2noc(=O)[nH]2)cc1 [Azilsartan Medoxomil (TAK-491), Azilsartan Medoxomil] | significant inhibition effect

Compound | inhibition effect on different cancer cell lines (in words)
COc1ccccc1OCC(O)CN1CCN(CC(=O)Nc2c(C)cccc2C)CC1 (centres unmarked) [Ranolazine dihydrochloride] | significant inhibition effect
O=C(O)[C@H](CC(=O)N1C[C@H]2CCCC[C@H]2C1)Cc1ccccc1 [Mitiglinide calcium] | significant inhibition effect
CCOC(=O)[C@H](CCc1ccccc1)N[C@@H](C)C(=O)N1C(=O)N(C)C[C@H]1C(=O)O [Imidapril (Tanatril) HCl, Imidapril HCl] | significant inhibition effect
COCCc1ccc(OCC(O)CNC(C)C)cc1 (centres unmarked) [toprolol tartrate] | significant inhibition effect
Cc1c(O)c(=O)ccn1C [Deferiprone] | significant inhibition effect
CNCC(=O)c1ccc(O)c(O)c1 [Adrenalone HCl] | significant inhibition effect
Oc1ccc(OC2CCCCO2)cc1 (centres unmarked) [Deoxyarbutin] | significant inhibition effect
N=C(N)NC(=O)c1nc(Cl)c(N)nc1N [Amiloride hydrochloride dihydrate] | significant inhibition effect
NS(=O)(=O)c1cc2c(cc1Cl)N=C(CSCc1ccccc1)NS2(=O)=O [Benzthiazide] | significant inhibition effect
NC(N)=Nc1nc(CSCCC(N)=NS(N)(=O)=O)cs1 [Famotidine (Pepcid), Famotidine] | significant inhibition effect
CS(=O)(=O)OCCCCOS(C)(=O)=O [Busulfan (Myleran, Busulfex), Busulfan] | significant inhibition effect
O=C(O[C@H]1C[C@H]2CC[C@@H](C1)[N+]21CCCC1)C(O)(c1ccccc1)c1ccccc1 [Trospium chloride (Sanctura), Trospium chloride] | significant inhibition effect
O=C1CCc2cc(OCCCCc3nnnn3C3CCCCC3)ccc2N1 [Cilostazol] | significant inhibition effect
C=C[C@H]1C[N@@]2CC[C@H]1C[C@H]2[C@H](O)c1ccnc2ccc(OC)cc12 [Quinine hydrochloride dihydrate] | significant inhibition effect
Nc1ccc(/N=N/c2ccccc2)c(N)n1 [Phenazopyridine HCl] | significant inhibition effect
C=C(c1ccc(C(=O)O)cc1)c1cc2c(cc1C)C(C)(C)CCC2(C)C [Bexarotene] | significant inhibition effect
COc1ccccc1OCCNCC(O)COc1cccc2[nH]c3ccccc3c12 (centres unmarked) [Carvedilol] | significant inhibition effect
N=C(N)c1ccc2cc(OC(=O)c3ccc(N=C(N)N)cc3)ccc2c1 [Nafamostat mesylate] | significant inhibition effect
